Usually IC50 stands for the concentration that gives 50% inhibition. Low values mean greater potency in that assay, high ones weaker potency in that assay.

SMILES strings stand for the structures.

The target of one experiment is T1, 15-hydroxyprostaglandin dehydrogenase [NAD(+)] (Homo sapiens, UniProt P15428).
T1 sequence (P15428 whole entry): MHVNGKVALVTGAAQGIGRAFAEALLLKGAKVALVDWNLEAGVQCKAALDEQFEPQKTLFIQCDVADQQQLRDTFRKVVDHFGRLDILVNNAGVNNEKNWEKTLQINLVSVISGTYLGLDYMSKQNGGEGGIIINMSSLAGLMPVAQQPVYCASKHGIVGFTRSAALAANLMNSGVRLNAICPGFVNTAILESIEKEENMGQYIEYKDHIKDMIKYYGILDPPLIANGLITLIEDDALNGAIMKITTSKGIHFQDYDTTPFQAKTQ
Description: In vitro Assay (1 nM). The method, then: Each compound for inhibiting enzymatic activity of recombinant 15-PGDH (1 nM) in an in vitro assay.
`COCCC[S+]([O-])c1sc2nc(-c3ccc(N)nc3)cc(-c3cccnc3)c2c1N` (stereo not given) [US20240043440, Example 90] gave an IC50 of 2.5 nM.
For `CCCC[S+]([O-])c1sc2nc(-c3ccncn3)cc(-c3ccccc3)c2c1N` (stereo not given) [US20240043440, Example 47], the IC50 is 1.1 nM.
Still for that read-out and setting: the same measure for `CCCC[S+]([O-])c1sc2nc(-c3cccnc3)cc(-c3cnc(C)n3C)c2c1N` (stereo not given) [US20240043440, Example 38]: 1.4 nM; for `CCCC[S+]([O-])c1sc2nc(-c3ncccn3)cc(-c3ccccc3)c2c1N` (stereo not given) [US20240043440, Example 44]: 1.7 nM.
As for `CCCC[S+]([O-])c1sc2nc(-c3cccnc3)cc(-c3ccccc3F)c2c1N` (stereo not given) [US20240043440, Example 55], the IC50 was found to be 1 nM.
The same measure, in the same setting: the same measure for `CCCC[S+]([O-])c1sc2nc(-c3cccnc3)cc(-c3ncsc3C)c2c1N` (stereo not given) [US20240043440, Example 73]: 1 nM; for `CCCC[S+]([O-])c1sc2nc(-c3cnc(N(C)C)nc3)cc(-c3ccccc3)c2c1N` (stereo not given) [US20240043440, Example 63]: 1.7 nM.
On the same count and under the same terms, the value for `CCCC[S+]([O-])c1sc2nc(-c3cncnc3)nc(-c3ccccc3)c2c1N` (stereo not given) [US20240043440, Example 83] was 1.3 nM; that for `CCCC[S+]([O-])c1sc2nc(-c3cccnc3)cc(-c3nccs3)c2c1N` (stereo not given) [US20240043440, Example 51] was 1 nM.
On to `CCCC[S+]([O-])c1sc2nc(-c3cccnc3)nc(-c3cn(C)cn3)c2c1N` (stereo not given) [US20240043440, Example 85], for which half-maximal inhibition (IC50) was put at 1.3 nM.
In turn, `CCCC[S+]([O-])c1sc2nc(-c3cccnc3)cc(-c3ccc(C#N)cc3)c2c1N` (stereo not given) [US20240043440, Example 59] displayed a half-inhibitory concentration (IC50) of 0.91 nM.
On the same count and under the same terms, the same measure for `CCCC[S+]([O-])c1sc2nc(-c3ccccn3)nc(-c3ccccc3)c2c1N` (stereo not given) [US20240043440, Example 76]: 3.6 nM; for `CCCC[S+]([O-])c1sc2nc(-c3cccnc3)nc(-c3nccn3C)c2c1N` (stereo not given) [US20240043440, Example 86]: 1.1 nM.
On to `CCCC[S+]([O-])c1sc2nc(-c3cncnc3)cc(-c3cnc(C4CC4)n3C)c2c1N` (stereo not given) [US20240043440, Example 53], for which inhibition was half-maximal at 2.6 nM (IC50).
The same measure, in the same setting: the same measure for `COCC[S+]([O-])c1sc2nc(-c3ccc(C4COC4)nc3)cc(-c3ccc(F)cc3)c2c1N` (stereo not given) [US20240043440, Example 91]: 2.4 nM.
Molecule `CCCC[S+]([O-])c1sc2nc(-c3ccc(N)nc3)cc(-c3ccccc3)c2c1N` (stereo not given) [US20240043440, Example 62] registered an IC50 of 1.5 nM.
On the same count and under the same terms, the value for `CCCC[S+]([O-])c1sc2nc(-c3cccnc3)cc(-c3cccnc3)c2c1N` (stereo not given) [US20240043440, Example 54] was 0.82 nM.
As to `CCCC[S+]([O-])c1sc2nc(-c3cccnc3)cc(-c3ccccn3)c2c1N` (stereo not given) [US20240043440, Example 58], the IC50 was found to be 1.2 nM.
The same measure, in the same setting: the value for `CCOCC[S+]([O-])c1sc2nc(-c3nccs3)cc(-c3cncn3C)c2c1N` (stereo not given) [US20240043440, Example 31] was 1.8 nM; that for `COCCC[S+]([O-])c1sc2nc(-c3cccnc3)cc(-c3cn(C)cn3)c2c1N` (stereo not given) [US20240043440, Example 89] was 1.3 nM; that for `CCCC[S@+]([O-])c1sc2nc(-c3cccnc3)nc(-c3nccn3C)c2c1N` [US20240043440, Example 86B] was 41 nM.
Still for that read-out and setting: the value for `CCOCC[S+]([O-])c1sc2nc(-c3nccs3)cc(-c3cnc(C)n3C)c2c1N` (stereo not given) [US20240043440, Example 34] was 3.1 nM; that for `Cn1cncc1-c1cc(-c2nccs2)nc2sc([S+]([O-])C3CCCC3)c(N)c12` (stereo not given) [US20240043440, Example 32] was 1.6 nM.
Still for that read-out and setting: the value for `CCCC[S+]([O-])c1sc2nc(-c3cccnc3)nc(-c3cncn3C)c2c1N` (stereo not given) [US20240043440, Example 84] was 1.2 nM.
`CCCC[S+]([O-])c1sc2nc(-c3nccs3)nc(-c3nccn3C)c2c1N` (stereo not given) [US20240043440, Example 77] yielded an IC50 of 1.8 nM.
Same read-out and setting: the same measure for `CCCC[S+]([O-])c1sc2nc(-c3cncnc3)cc(-c3cnc(C)n3C)c2c1N` (stereo not given) [US20240043440, Example 39]: 1.2 nM; for `COCCC[S@@+]([O-])c1sc2nc(-c3cccnc3)nc(-c3ccccc3)c2c1N` [US20240043440, Example 78-A]: 1 nM; for `COCCC[S+]([O-])c1sc2nc(-c3cccnc3)cc(-c3cncn3C)c2c1N` (stereo not given) [US20240043440, Example 50]: 1.4 nM.
Take `CCCC[S+]([O-])c1sc2nc(-c3cnccc3C)cc(-c3cnc(C)n3C)c2c1N` (stereo not given) [US20240043440, Example 56]: the IC50 was determined as 2.2 nM.
On to `COCC[S@@+]([O-])c1sc2nc(-c3cccnc3)nc(-c3ccccc3)c2c1N` [US20240043440, Example 79-A], for which the IC50 was 1 nM.

The next experiment concerns the target T1, 15-hydroxyprostaglandin dehydrogenase [NAD(+)]. Description: In vitro Assay (5 nM).
Description: Each compound for inhibiting enzymatic activity of recombinant 15-PGDH (5 nM) in an in vitro assay.
On to `CCCC[S+]([O-])c1sc2nc(-c3ccc(F)nc3)cc(-c3ccccc3)c2c1N` (stereo not given) [US20240043440, Example 22], for which the midpoint of inhibition, the IC50, lay at 4 nM.
Still for that read-out and setting: the value for `CCCC[S+]([O-])c1sc2nc(-c3cnn(C)c3)cc(-c3ccccc3)c2c1N` (stereo not given) [US20240043440, Example 24] was 3 nM; that for `CCCC[S+]([O-])c1sc2nc(-c3cncnc3)cc(-c3ccccc3)c2c1N` (stereo not given) [US20240043440, Example 20] was 3.2 nM.
On the same count and under the same terms, the same measure for `CCCC[S@@+]([O-])c1sc2nc(-c3nccs3)cc(-c3nccn3CC)c2c1N` [US20240043440, Example 29]: 1.4 nM; for `CCCC[S+]([O-])c1sc2nc(-c3ccccc3)cnc2c1N` (stereo not given) [US20240043440, Example 27]: 1.6 nM.
On the same count and under the same terms, the same measure for `CCCC[S+]([O-])c1sc2nc(-c3nccs3)cc(-c3cnccn3)c2c1N` (stereo not given) [US20240043440, Example 1]: 2.7 nM.
`CCCC[S+]([O-])c1sc2nc(-c3nccs3)cc(-c3cn(C)cn3)c2c1N` (stereo not given) [US20240043440, Example 28]: the IC50 was 1.4 nM.
As for `CCCC[S+]([O-])c1sc2nc(-c3nccs3)cc(-c3ncccn3)c2c1N` (stereo not given) [US20240043440, Example 8], half-maximal inhibition (IC50) required 2.6 nM.
For the molecule `CCCC[S+]([O-])c1sc2nc(-c3cccnc3)cc(-c3ccccc3)c2c1N` (stereo not given) [US20240043440, Example 19], the IC50 is 2.4 nM.
The same measure, in the same setting: the value for `CCCC[S+]([O-])c1cc2c(-c3ccccc3)cc(-c3cccs3)nc2s1` (stereo not given) [US20240043440, Example 11] was 24.7 nM; that for `CCCC[S+]([O-])c1sc2nc(-c3nccs3)nc(-c3cccnc3)c2c1N` (stereo not given) [US20240043440, Example 26] was 20 nM.
Regarding `CCCC[S+]([O-])c1sc2nc(-c3cnc(N)nc3)cc(-c3ccccc3)c2c1N` (stereo not given) [US20240043440, Example 21], half-maximal inhibition (IC50) was put at 4 nM.
For `CCCC[S+]([O-])c1sc2nc(-c3cccs3)cc(-c3ccccc3)c2c1C` (stereo not given) [US20240043440, Example 10], half-maximal inhibition (IC50) required 7.1 nM.
In turn, `CCCC[S+]([O-])c1sc2nc(-c3nccs3)nc(-c3cnc(C)n3C)c2c1N` (stereo not given) [US20240043440, Example 15] displayed a half-maximal inhibitory concentration (IC50) of 3.7 nM.
As for `CCCC[S@+]([O-])c1sc2nc(-c3nccs3)cc(-c3nccn3CC)c2c1N` [US20240043440, Example 30], the concentration for half-maximal inhibition (IC50) worked out at 221 nM.

These data come from BindingDB's records for patent US20240043440 (Case Western Reserve University, 2024).
